Test results as given in ChEMBL document CHEMBL1121932, “Structure-anti-Parkinson activity relationships in the aminoadamantanes. Influence of bridgehead substitution” (J Med Chem, 1982).

Key:
[1] = Partition coefficient (logP); assay type: physicochemical; conditions: octanol/water
[2] = test system: Mus musculus; assay: Stimulation of spontaneous locomotor activity of compound was measured in mice at a dose of 0.05 mmol/kg); assay type: functional; set-up: unit not given here
[3] = test system: Mus musculus; assay: Stimulation of spontaneous locomotor activity of compound was measured in mice at a dose of 0.1 mmol/kg); assay type: functional
[4] = test system: Mus musculus; assay: Stimulation of spontaneous locomotor activity of compound was measured in mice at a dose of 0.2 mmol/kg); assay type: functional
[5] = test system: Mus musculus; assay: Stimulation of spontaneous locomotor activity of compound was measured in mice at a dose of 0.025 mmol/kg); assay type: functional; set-up: unit not given here
[6] = test system: Mus musculus; assay: Stimulation of spontaneous locomotor activity of compound was measured in mice at a dose of 0.10 mmol/kg); assay type: functional; set-up: unit not given here
[7] = test system: Mus musculus; assay: Stimulation of spontaneous locomotor activity of compound was measured in mice at a dose of 0.20 mmol/kg); assay type: functional
[8] = test system: Mus musculus; assay: Modification of circling behavior in mice with unilateral striatal lesions produced by 6-hydroxydopamine injection was measured at a dose of 0.10 mmol/kg; assay type: functional
[9] = test system: Mus musculus; assay: Stimulation of spontaneous locomotor activity of compound was measured in mice at a dose of 0.0125 mmol/kg); assay type: functional
[10] = test system: Mus musculus; assay: Modification of circling behavior in mice with unilateral striatal lesions produced by 6-hydroxydopamine injection was measured at a dose of 0.05 mmol/kg; assay type: functional
[11] = test system: Mus musculus; assay: Modification of circling behavior in mice with unilateral striatal lesions produced by 6-hydroxydopamine injection was measured at a dose of 0.15 mmol/kg; assay type: functional
[12] = test system: Mus musculus; assay: Modification of circling behavior in mice with unilateral striatal lesions produced by 6-hydroxydopamine injection was measured at a dose of 0.20 mmol/kg; assay type: functional
[13] = test system: Mus musculus; assay: Stimulation of spontaneous locomotor activity of compound was measured in mice at a dose of 0.15 mmol/kg); assay type: functional
[14] = test system: Mus musculus; assay: Stimulation of spontaneous locomotor activity of compound was measured in mice at a dose of 0.30 mmol/kg); assay type: functional
[15] = test system: Mus musculus; assay: Stimulation of spontaneous locomotor activity of compound was measured in mice at a dose of 0.01 mmol/kg); assay type: functional
[16] = test system: Mus musculus; assay: Stimulation of spontaneous locomotor activity of compound was measured in mice at a dose of 0.04 mmol/kg); assay type: functional
[17] = test system: Mus musculus; assay: Modification of circling behavior in mice with unilateral striatal lesions produced by 6-hydroxydopamine injection was measured at a dose of 0.027 mmol/kg; assay type: functional
[18] = test system: Mus musculus; assay: Stimulation of spontaneous locomotor activity of compound was measured in mice at a dose of 0.02 mmol/kg); assay type: functional
[19] = test system: Mus musculus; assay: Stimulation of spontaneous locomotor activity of compound was measured in mice at a dose of 0.4 mmol/kg); assay type: functional
[20] = test system: Mus musculus; assay: Modification of circling behavior in mice with unilateral striatal lesions produced by 6-hydroxydopamine injection was measured at a dose of 0.2 mmol/kg; assay type: functional
[21] = test system: Mus musculus; assay: Stimulation of spontaneous locomotor activity of compound was measured in mice at a dose of 0.4 mmol/kg); Lethal; assay type: functional, organism-based
[22] = test system: Mus musculus; assay: Modification of circling behavior in mice with unilateral striatal lesions produced by 6-hydroxydopamine injection was measured at a dose of 0.1 mmol/kg; assay type: functional
[23] = test system: Mus musculus; assay: Modification of circling behavior in mice with unilateral striatal lesions produced by 6-hydroxydopamine injection was measured at a dose of 0.013 mmol/kg; assay type: functional

Structure (SMILES) | logP [1] | Activity [2] | Activity [3] | Activity [4] | Activity [5] | Activity [6] | Activity [7] | Net turns/min [8] | Net turns/min [11] | other results
CC12CC3CC(C1)CC(N)(C3)C2 | 3.01 | 37 | 144 | 383 | – | – | – | – | – | –
CCC12CC3CC(N)(C1)CC(CC)(C3)C2 | 4.36 | 383 | – | – | 154 | 716 | 478 | 1.6 | – | –
CCCC12CC3CC(CC(N)(C3)C1)C2 | 3.76 | 75 | – | – | 75 | 94 | – | – | – | –
CC12CC3CC(C)(C1)CC(N)(C3)C2 [MEMANTINE] | – | 377 | – | – | 264 | 916 | 1378 | 2.6 | 4.3 | Activity [9]: 181; Net turns/min [10]: 1; Net turns/min [12]: 2.6
CCC12CC3CC(CC(N)(C3)C1)C2 | 3.4 | 147 | – | – | 61 | 237 | 522 | 1.2 | 2 | Activity [13]: 432; Activity [14]: 368; Net turns/min [10]: 1.3; Net turns/min [12]: 1.2
CC(N)Cc1ccccc1 (stereo not drawn) [AMPHETAMINE] | – | – | – | – | – | – | – | – | – | Activity [15]: 177; Activity [16]: 993; Net turns/min [17]: 5.5; Activity [18]: 562
NC12CC3CC(CC(C3)C1)C2 [AMANTADINE] | 2.44 | 87 | 201 | 243 | – | – | – | – | – | Activity [19]: 44; Net turns/min [20]: 1.1
CC12CC3(C)CC(C)(C1)CC(N)(C2)C3 | 4.01 | 264 | 351 | 472 | 148 | – | – | – | 1.2 | Activity [21]: Lethal; Net turns/min [22]: 1
CN1CCc2cccc3c2[C@H]1Cc1ccc(O)c(O)c1-3 [APOMORPHINE] | – | – | – | – | – | – | – | – | – | Net turns/min [23]: 2.6
